Laboratory results taken from patent US12419861B2, “Method for preventing and/or treating chronic traumatic encephalopathy-i” (EUSTRALIS PHARMACEUTICALS LIMITED (trading as Pressura …, priority 2013, dated 2025).

Tested on: tau phosphorylation
Assay: Tau phosphorylation after concussive injury in the rat (rodent model of concussion, FIG. 3)
Assay type: in vivo
Conditions: NK1 receptor antagonist administered at 30 min after induction of injury, assessed at 3 day time point, compared with injured untreated animals
Source text: Note that concussive injury in the rat causes extensive tau phosphorylation (C,D) by 3 days after the concussive event compared to non-injured animals (A,B). […] Concussion results in perivascular substance P release Having established that hyperphosphorylated tau accumulates perivascularly following concussive injury, we used an animal model of concussion to investigate whether concussion causes perivascular release of substance P. We developed a rodent model of concussion to replicate the concussive event (Donkin et al., 2004, 7th International Neurotrauma Symposium, pp 75-78, Medimond Publishers, Bologna, Italy) and subsequently determined whether substance P was released after such an event. There was a clear increase in brain perivascular substance P immunoreactivity after the concussive event (FIG. 2). […] Administration of a NK1 receptor antagonist prevents tau phosphorylation Having shown that mechanical injury causes release of substance P after concussive injury, we then investigated whether a substance P NK1 receptor antagonist reduces tau hyperphosphorlation after concussive injury. […] Note that concussive injury in the rat causes extensive tau phosphorylation (C,D) by 3 days after the concussive event compared to non-injured animals (A,B). […] Thus, administration of an NK1 receptor antagonist prevents tau hyperphosphorylation and thus prevents the development of CTE.

`CC(=O)N[C@@H](Cc1c[nH]c2ccccc12)C(=O)O` [n-acetyl-L-tryptophan, N-acetyl-L-tryptophan] was tested, and the “effect on tau phosphorylation after concussive injury” value was “almost complete inhibition of tau phosphorylation”.
